In patent publication US20230250096A1, “SUBSTITUTED PHENYL-1H-PYRROLO[2,3-c] PYRIDINE DERIVATIVES” (Janssen Pharmaceutica NV, priority 2021, published 2023) one finds IC50 data, which are given here for 21 molecules.

Bounds are passed on as bounds.

One assay deals with MEIS1 mRNA expression. The assay is described as follows: MEIS1 mRNA expression assay (Quantigene Singleplex) in MOLM14 cells. The note with it: Homo sapiens, MOLM-14, 48 h, 48 hours incubation. Format: cell-based, human. The protocol: 2b) MEIS1 mRNA Expression Assay
MEIS1 mRNA expression upon treatment of compound was examined by Quantigene Singleplex assay (Thermo Fisher Scientific). This technology allows for direct quantification of mRNA targets using probes hybridizing to defined target sequences of interest and the signal is detected using a Multimode plate reader Envision (PerkinElmer). The MOLM14 cell line was used for this experiment. Cells were plated in 96-well plates at 3,750 cells/well in the presence of increasing concentrations of compounds. After incubation of 48 hours with compounds, cells were lysed in lysis buffer and incubated for 45 minutes at 55° C. Cell lysates were mixed with human MEIS specific capture probe or human RPL28 (Ribosomal Protein L28) specific probe as a normalization control, as well as blocking probes. Cell lysates were then transferred to the custom assay hybridization plate (Thermo Fisher Scientific) and incubated for 18 to 22 hours at 55° C. Subsequently, plates were washed to remove unbound materials followed by sequential addition of preamplifiers, amplifiers, and label probe. Signals (═gene counts) were measured with a Multimode plate reader Envision. IC50S were calculated by dose-response modelling using appropriate software. For all non-housekeeper genes response equal counts corrected for background and relative expression. For each sample, each test gene signal (background subtracted) was divided by the normalization gene signal (RPL28: background subtracted). Fold changes were calculated by dividing the normalized values for the treated samples by the normalized values for the DMSO treated sample. Fold changes of each target gene were used for the calculation of IC50S.
In turn, `Cc1cncc2c1c(C[C@@H]1CCN(C(CCCN3CCC(S(C)(=O)=O)CC3)C(C)C)C1)cn2-c1ccc(F)cc1C(=O)N(C)C(C)C` (mixture of isomers) [Compound 10] registered an IC50 of 17 nM. For the molecule `Cc1cncc2c1c(C[C@H]1CCN(C(CCCN3CCC(S(C)(=O)=O)CC3)C(C)C)C1)cn2-c1ccc(F)cc1C(=O)N(C)C(C)C` (mixture of isomers) [Compound 11], inhibition was half-maximal at 6 nM (IC50). In the case of `CC(=O)N1C[C@@H]2CN(CCCC(C(C)C)N3CC[C@@H](Cc4cn(-c5ccc(F)cc5C(=O)N(C)C(C)C)c5cncc(C)c45)C3)C[C@H]2C1` (mixture of isomers) [Compound 12], the midpoint of inhibition, the IC50, lay at 5 nM.

Molecule `CC(=O)N1C[C@@H]2CN(CCCC(C(C)C)N3CC[C@H](Cc4cn(-c5ccc(F)cc5C(=O)N(C)C(C)C)c5cncc(C)c45)C3)C[C@H]2C1` (mixture of isomers) [Compound 13] yielded an IC50 of 6 nM. The same measure, in the same setting: to `CC(=O)N1CCC(CN2CC[C@@H](Cc3cn(-c4ccc(F)cc4S4(=O)=NCCC4)c4cncc(C)c34)C2)CC1` (mixture of isomers) [Compound 214] belongs greater than 1000 nM.

For the next assay, the target named is T1, menin/MLL (terbium chelate-labeled menin, FITC-MBM1 peptide) (Homo sapiens, UniProt O00255, T541A).
T1 construct: Menin (a.a 1-610-6xhis tag, 2.3 mg/mL in 20 mM Hepes)
T1 sequence (O00255 with tags, fused parts or gaps T541A): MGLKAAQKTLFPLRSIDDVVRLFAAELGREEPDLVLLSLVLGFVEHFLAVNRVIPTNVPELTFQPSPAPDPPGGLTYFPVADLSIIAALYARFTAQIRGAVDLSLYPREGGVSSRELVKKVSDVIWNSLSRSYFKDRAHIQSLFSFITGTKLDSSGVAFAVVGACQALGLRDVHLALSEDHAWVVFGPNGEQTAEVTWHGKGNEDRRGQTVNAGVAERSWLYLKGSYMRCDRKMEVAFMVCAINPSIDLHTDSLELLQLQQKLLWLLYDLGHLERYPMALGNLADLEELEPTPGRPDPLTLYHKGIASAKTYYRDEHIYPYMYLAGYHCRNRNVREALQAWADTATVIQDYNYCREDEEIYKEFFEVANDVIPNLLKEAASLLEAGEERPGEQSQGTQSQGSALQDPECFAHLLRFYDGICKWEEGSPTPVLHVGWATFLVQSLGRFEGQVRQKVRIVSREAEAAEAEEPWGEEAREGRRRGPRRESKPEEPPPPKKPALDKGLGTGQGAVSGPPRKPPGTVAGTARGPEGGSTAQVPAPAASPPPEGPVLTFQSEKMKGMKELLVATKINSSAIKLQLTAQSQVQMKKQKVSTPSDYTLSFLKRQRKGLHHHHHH
As to the kind of experiment: Menin/MLL homogenous time-resolved fluorescence (HTRF) assay. It counts as binding. The conditions noted are these: 30 min incubation. As for the experimental part: 1) Menin/MLL Homogenous Time-Resolved Fluorescence (HTRF) Assay
To an untreated, white 384-well microtiter plate was added 40 nL 200× test compound in DMSO and 4 μL 2× terbium chelate-labeled menin (vide infra for preparation) in assay buffer (40 mM Tris HCl, pH 7.5, 50 mM NaCl. 1 mM DTT (dithiothreitol) and 0.05% Pluronic F-127). After incubation of test compound and terbium chelate-labeled menin for 30 min at ambient temperature, 4 μL 2×FITC-MBM1 peptide (FITC-β-alanine-[…]-NH2) (“FITC” means fluorescein isothiocyanate) in assay buffer was added, the microtiter plate centrifuged at 1000 rpm for 1 min and the assay mixtures incubated for 15 min at ambient temperature. The relative amount of menin FITC-MBM1 complex present in an assay mixture is determined by measuring the homogenous time-resolved fluorescence (HTRF) of the terbium/FITC donor/acceptor fluorphore pair using an EnVision microplate reader (ex. 337 nm/terbium em. 490 nm/FITC em. 520 nm) at ambient temperature. The degree of fluorescence resonance energy transfer (the HTRF value) is expressed as the ratio of the fluorescence emission intensities of the FITC and terbium fluorophores (F^em520 nm/F^em490 nm). The final concentrations of reagents in the binding assay are […] terbium chelate-labeled menin, 75 nM FITC-MBM1 peptide and 0.5% DMSO in assay buffer. Dose-response titrations of test compounds are conducted using an 11 point, four-fold serial dilution scheme, starting typically at 10 μM.
Compound potencies were determined by first calculating % inhibition at each compound concentration according to equation 1:
% inhibition=((HC−LC)−(HTRF^compound−LC))/(HC−LC))*100 (Eqn 1)
Where LC and HC are the HTRF values of the assay in the presence or absence of a saturating concentration of a compound that competes with FITC-MBM1 for binding to menin, and HTRF^compound is the measured HTRF value in the presence of the test compound. HC and LC HTRF values represent an average of at least 10 replicates per plate.
% inhibition=Bottom+(Top−Bottom)/(1+10^((log/C50−log[cmpd])*h)) (Eqn 2)
Where Bottom and Top are the lower and upper asymptotes of the dose-response curve, respectively, IC50 is the concentration of compound that yields 50% inhibition of signal and h is the Hill coefficient.
Preparation of Terbium cryptate labeling of Menin: Menin (a.a 1-610-6xhis tag, 2.3 mg/mL in 20 mM Hepes (2-[4-(2-Hydroxyethyl)-1-piperazinyl]ethane sulfonic acid), 80 mM NaCl, 5 mM DTT (Dithiothreitol), pH 7.5) was labeled with terbium cryptate as follows. 200 μg of Menin was buffer exchanged into 1×Hepes buffer. 6.67 μM Menin was incubated with 8-fold molar excess NHS (N-hydroxysuccinimide)-terbium cryptate for 40 minutes at room temperature. Half of the labeled protein was purified away from free label by running the reaction over a NAP5 column with elution buffer (0.1M Hepes, pH 7+0.1% BSA (bovine serum albumin)). The other half was eluted with 0.1 M phosphate buffered saline (PBS), pH7. 400 μl of eluent was collected for each, aliquoted and frozen at −80° C. The final concentration of terbium-labeled Menin protein was 115 μg/mL in Hepes buffer and 85 μg/mL in PBS buffer, respectively.
On the technique in general: In TR-FRET formats the signal depends on donor and acceptor labels being close together.
Consider `Cc1cncc2c1c(C[C@@H]1CCN(C(CCCN3CCC(S(C)(=O)=O)CC3)C(C)C)C1)cn2-c1ccc(F)cc1C(=O)N(C)C(C)C` (mixture of isomers) [Compound 10], for which the IC50 was 0.021 nM. For `Cc1cncc2c1c(C[C@H]1CCN(C(CCCN3CCC(S(C)(=O)=O)CC3)C(C)C)C1)cn2-c1ccc(F)cc1C(=O)N(C)C(C)C` (mixture of isomers) [Compound 11], half-maximal inhibition (IC50) was put at 0.034 nM. Take `CC(=O)N1C[C@@H]2CN(CCCC(C(C)C)N3CC[C@@H](Cc4cn(-c5ccc(F)cc5C(=O)N(C)C(C)C)c5cncc(C)c45)C3)C[C@H]2C1` (mixture of isomers) [Compound 12]: the midpoint of inhibition, the IC50, lay at 0.018 nM.

Regarding `CC(=O)N1C[C@@H]2CN(CCCC(C(C)C)N3CC[C@H](Cc4cn(-c5ccc(F)cc5C(=O)N(C)C(C)C)c5cncc(C)c45)C3)C[C@H]2C1` (mixture of isomers) [Compound 13], the IC50 was 0.124 nM.

`CC(=O)N1CCC(N2CC(Cc3cn(-c4ccc(F)cc4C(=O)N(C)C(C)C)c4cncc(C)c34)C2)C[C@H]1C` (single isomer, unassigned) [Compound 292a] displayed an IC50 of 0.132 nM. `Cc1cncc2c1c(CC1CN([C@@H]3CCN4C(=O)CCC4C3)C1)cn2-c1ccc(F)cc1C(=O)N(C)C(C)C` (single isomer, unassigned) [Compound 309a] gave an IC50 of 1.3 nM. With `CNC(=O)c1cncc(N2CCC(N3CC(Cc4cn(-c5ccc(OC)cc5C(=O)N(C)C(C)C)c5cncc(C)c45)C3)CC2)n1` [Compound 76], 0.304 nM corresponded to half-maximal inhibition (IC50). Turning to `CC(=O)N1CCC(N2CC[C@H](Cc3cn(-c4ccc(F)cc4C(=O)N(C)C(C)C)c4cncc(C)c34)C2)CC1` [Compound 156], the IC50 was found to be 0.042 nM. `CC(=O)N1CC2CC(N3CC(Cc4cn(-c5ccc(F)cc5C(=O)N(C)C(C)C)c5cncc(C)c45)C3)CC2C1` (stereo not shown) [Compound 294b] returned an IC50 of 0.077 nM. Take `Cc1cncc2c1c(C[C@@H]1CCN(CC3CCOCC3)C1)cn2-c1ccc(F)cc1C(=O)N1CCC[C@@H]1CO` [Compound 361]: the concentration for half-maximal inhibition (IC50) amounted to 0.149 nM. Same read-out and setting: for `Cc1cncc2c1c(C[C@H]1CN[C@H](C)C1)cn2-c1ccc(F)cc1C(=O)N(C)C(C)C` [Compound 503] the value was 10.5 nM; for `Cc1cncc2c1c(C[C@H]1CN[C@@H](C)C1)cn2-c1ccc(F)cc1C(=O)N(C)C(C)C` [Compound 505], 3.11 nM.

With `Cc1cncc2c1c(CC1CCNC1C)cn2-c1ccc(F)cc1C(=O)N(C)C(C)C` (stereo not shown) [Compound 507], the IC50 was found to be 6.6 nM.

For the molecule `Cc1cncc2c1c(CC1CCNC1C)cn2-c1ccc(F)cc1C(=O)N(C)C(C)C` (stereo not shown) [Compound 508], it took 3.68 nM to reach half-maximal inhibition (IC50). `Cc1cncc2c1c(CC1CCNC1C)cn2-c1ccc(F)cc1C(=O)N(C)C(C)C` (stereo not shown) [Compound 509] showed an IC50 of 4.53 nM. With `Cc1cncc2c1c(CC1CCNC1C)cn2-c1ccc(F)cc1C(=O)N(C)C(C)C` (stereo not shown) [Compound 510], the IC50 came to 2.95 nM. On the same count and under the same terms, to `Cc1cncc2c1c(C[C@@H]1CN[C@@H](C)C1)cn2-c1ccc(F)cc1C(=O)N(C)C(C)C` [Compound 522] belongs 10.6 nM; to `COC(=O)c1cc(F)ccc1-n1cc(C[C@@H]2CCN(CC3CCN(C(C)=O)CC3)C2)c2c(C)cncc21` [Compound 528], 0.514 nM. For the molecule `COC(=O)c1cc(F)ccc1-n1cc(C[C@@H]2CCN(CC3CCNC(=O)CC3)C2)c2c(C)cncc21` (stereo partly shown) [Compound 533], half-maximal inhibition (IC50) was put at 0.808 nM. On the same count and under the same terms, to `COC(=O)c1cc(F)ccc1-n1cc(C[C@@H]2CCN(CC3CCOCC3)C2)c2c(C)cncc21` [Compound 534] belongs 0.556 nM.

As usually defined, the IC50 is the point on the concentration scale where inhibition reaches its midpoint.
